Results on 27 compounds are retold here after patent publication US12528797B2, “Heterocyclic compounds for medical treatment” (C4 Therapeutics, Inc., priority 2019, dated 2026).

In this experiment the target is hCereblon(M1-L442)_hDDB1(M1-H1140) (Homo sapiens (Human), UniProt Q96SW2). The experiment is described as follows: Fluorescence direct binding (tryptophan fluorescence titration). As to conditions: 20° C., excitation 280 nm, emission 340 nm, assay buffer 50 mM Hepes 7.4 200 mM NaCl; read-out: Fluorescence h-Cereblon_DDB1 Mean Kd_EQ. The protocol: Fluorescence Direct Binding Protocol
Chain of hCereblon(M1-L442)_hDDB1(M1-H1140) (Q96SW2 whole entry): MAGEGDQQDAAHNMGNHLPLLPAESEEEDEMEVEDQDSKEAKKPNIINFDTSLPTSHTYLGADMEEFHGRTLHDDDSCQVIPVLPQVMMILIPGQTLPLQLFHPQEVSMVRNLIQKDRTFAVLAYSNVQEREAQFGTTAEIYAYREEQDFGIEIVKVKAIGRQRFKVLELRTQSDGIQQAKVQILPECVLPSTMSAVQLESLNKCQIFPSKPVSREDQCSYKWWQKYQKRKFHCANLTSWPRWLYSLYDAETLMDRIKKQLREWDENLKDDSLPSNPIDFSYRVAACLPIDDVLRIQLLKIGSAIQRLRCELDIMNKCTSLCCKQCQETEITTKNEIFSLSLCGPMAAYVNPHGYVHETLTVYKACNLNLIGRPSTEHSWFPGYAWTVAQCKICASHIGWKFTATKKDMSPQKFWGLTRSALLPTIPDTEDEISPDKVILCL
Chain of hCereblon(M1-L442)_hDDB1(M1-H1140) (Q16531 whole entry partner): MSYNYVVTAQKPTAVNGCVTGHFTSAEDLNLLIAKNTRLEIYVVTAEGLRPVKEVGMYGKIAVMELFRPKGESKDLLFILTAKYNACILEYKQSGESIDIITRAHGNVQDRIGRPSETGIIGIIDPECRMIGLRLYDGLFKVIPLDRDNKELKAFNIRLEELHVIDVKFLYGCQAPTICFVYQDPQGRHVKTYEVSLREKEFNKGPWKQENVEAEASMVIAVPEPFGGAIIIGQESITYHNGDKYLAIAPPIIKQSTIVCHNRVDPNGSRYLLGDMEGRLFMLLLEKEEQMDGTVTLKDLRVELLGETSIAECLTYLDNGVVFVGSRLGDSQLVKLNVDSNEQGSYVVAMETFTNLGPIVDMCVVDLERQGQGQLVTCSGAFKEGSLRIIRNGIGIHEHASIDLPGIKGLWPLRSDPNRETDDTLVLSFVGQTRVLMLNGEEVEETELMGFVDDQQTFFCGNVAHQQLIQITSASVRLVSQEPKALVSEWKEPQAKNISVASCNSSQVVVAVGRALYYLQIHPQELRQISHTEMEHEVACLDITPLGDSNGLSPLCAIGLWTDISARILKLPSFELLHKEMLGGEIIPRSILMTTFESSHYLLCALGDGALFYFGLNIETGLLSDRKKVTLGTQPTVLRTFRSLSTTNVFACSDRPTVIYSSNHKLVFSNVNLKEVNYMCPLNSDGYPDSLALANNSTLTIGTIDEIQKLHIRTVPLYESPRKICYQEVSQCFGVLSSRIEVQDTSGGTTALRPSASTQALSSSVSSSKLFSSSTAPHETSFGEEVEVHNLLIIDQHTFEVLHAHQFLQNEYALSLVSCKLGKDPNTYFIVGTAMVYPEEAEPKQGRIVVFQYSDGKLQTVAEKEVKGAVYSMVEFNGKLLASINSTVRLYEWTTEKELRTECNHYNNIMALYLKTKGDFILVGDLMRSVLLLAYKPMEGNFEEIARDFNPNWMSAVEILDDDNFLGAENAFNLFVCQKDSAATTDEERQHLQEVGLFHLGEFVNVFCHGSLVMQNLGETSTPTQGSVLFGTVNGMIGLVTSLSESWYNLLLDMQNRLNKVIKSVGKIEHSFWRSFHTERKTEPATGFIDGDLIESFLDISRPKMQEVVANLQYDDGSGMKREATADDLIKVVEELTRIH
Determination of the affinities of compounds to protein containing one or more tryptophan is measurable by monitoring the fluorescence emission in direct mode. The measurements depending on the protein available amounts are performed either manually in a cuvette on ISS-PC1 photon counting spectrofluorometer or automatically in well plates on a fluorescence plate reader device. Fluorescence titrations are performed at 20° C. in the chosen binding assay buffer by using a defined constant protein concentration against ligand concentration variations. Small aliquots of known ligand concentration solubilized in DMSO were added and the fluorescence, excited at 280 nm, was recorded at 340 nm. The fluorescence intensity was corrected for protein dilution and for the filter effect (Birdsall et al.). The corrected fluorescence intensity was plotted against the ligand concentration and fitted using a four-parameter sigmoidal function, from which the equilibrium dissociation constant Kd was computed using the law of mass action assuming a 1:1 protein-ligand complex (Eftink, 1997).
• 1) Optimization of measurement parameters to minimize protein consumption and to minimize the dilution effect and the DMSO content • 2) Titration measurements of the protein against ligand by at least 12 titration steps to obtain a good s-curve fit • 3) Repeat the same titration measurements with the ligand alone to enable correction • 4) Check the stability of the protein once by titration against DMSO alone • 5) Determination of the molar extinction coefficients of the ligand at 280 and 340 nm with help of an UV-spectrophotometer • 6) Use Excel template for the correction of the measured raw data Use GraphPad Prism software for the quadratic binding fit and the KD evaluation.
`O=C(Nc1ccc2[nH]c(=O)oc2c1)c1ccccc1` [Example 1, N-(2-Oxo-3H-1,3-benzoxazol-6-yl)benzamide]: the Kd was determined as 4 nM. With `O=C1Cc2cc(NC(=O)c3ccco3)ccc2N1` [Example 2, N-(2-Oxoindolin-5-yl)furan-2-carboxamide], the Kd worked out at 7 nM. `Cc1ccccc1OCC(=O)Nc1ccc2[nH]c(=O)sc2c1` [Example 3, 2-(2-Methylphenoxy)-N-(2-oxo-3H-1,3-benzothiazol-6-yl)acetamide]: the Kd came to 14 nM. On to `CNC(=O)c1ccc2c(c1)nc(C(C)C)n2-c1ccc2c(c1)NC(=O)C2` [Example 4, 2-Isopropyl-N-methyl-1-(2-oxoindolin-6-yl)benzimidazole-5-carboxamide], for which the Kd turned out to be 2 nM.

Turning to `CNC(=O)c1ccc2c(c1)nc(C(C)C)n2-c1ccc2c(c1)CC(=O)N2` [Example 5, 2-Isopropyl-N-methyl-1-(2-oxoindolin-5-yl)benzimidazole-5-carboxamide], the Kd turned out to be 3 nM. In the case of `Nc1ccccc1Nc1ccc2[nH]c(=O)sc2c1` [Example 6, 6-(2-Aminoanilino)-3H-1,3-benzothiazol-2-one], the Kd was below 1 nM.

For the compound `CC(C)c1nc2ccccc2n1-c1ccc2[nH]c(=O)sc2c1` [Example 7, 6-(2-Isopropylbenzimidazol-1-yl)-3H-1,3-benzothiazol-2-one], the Kd worked out at 19 nM. The figure for `Nc1ccccc1Nc1ccc2[nH]c(=O)oc2c1` [Example 8, 6-(2-Aminoanilino)-3H-1,3-benzoxazol-2-one] is 8 nM.

With `CC(C)c1nc2ccccc2n1-c1ccc2[nH]c(=O)oc2c1` [Example 9, 6-(2-Isopropylbenzimidazol-1-yl)-3H-1,3-benzoxazol-2-one], the Kd came to 108 nM. For `O=C1Cc2cc(C(=O)Nc3ccccc3)ccc2N1` [Example 10, 2-Oxo-N-phenylindoline-5-carboxamide], the Kd was determined as 91 nM. Turning to `O=C(Nc1ccccc1)c1ccc2[nH]c(=O)oc2c1` [Example 11, 2-Oxo-N-phenyl-3H-1,3-benzoxazole-6-carboxamide], the Kd stood at 54 nM. For the compound `CC(=O)N1CCC(NC(=O)c2ccc3[nH]c(=O)oc3c2)CC1` [Example 12, N-(1-Acetyl-4-piperidyl)-2-oxo-3H-1,3-benzoxazole-6-carboxamide], the Kd amounted to 6 nM. The figure for `O=C(c1ccc2[nH]c(=O)oc2c1)N1CCc2ccccc21` [Example 13, 6-(Indoline-1-carbonyl)-3H-1,3-benzoxazol-2-one] is 4 nM; for `O=C(c1ccc2[nH]c(=O)oc2c1)N1CCc2cccnc21` [Example 14, 6-(2,3-Dihydropyrrolo[2,3-b]pyridine-1-carbonyl)-3H-1,3-benzoxazol-2-one] it is 24 nM.

Take `O=C(Nc1ccccc1)c1ccc2[nH]c(=O)sc2c1` [Example 15, 2-Oxo-N-phenyl-3H-1,3-benzothiazole-6-carboxamide]: the Kd was determined as 79 nM. Take `O=C(c1ccc2[nH]c(=O)sc2c1)N1CCc2ccccc21` [Example 16, 6-(Indoline-1-carbonyl)-3H-1,3-benzothiazol-2-one]: the Kd came out at 28 nM. In the case of `O=C1Cc2cc(C(=O)N3CCc4ccccc43)ccc2N1` [Example 17, 5-(Indoline-1-carbonyl)indolin-2-one], the Kd turned out to be 15 nM. Consider `O=C(Nc1ccccc1)c1cnc2[nH]c(=O)oc2c1` [Example 18, 2-Oxo-N-phenyl-3H-oxazolo[4,5-b]pyridine-6-carboxamide], for which the Kd is 24 nM. On to `CC(=O)N1CCC(NC(=O)c2cnc3[nH]c(=O)oc3c2)CC1` [Example 19, N-(1-Acetyl-4-piperidyl)-2-oxo-3H-oxazolo[4,5-b]pyridine-6-carboxamide], for which the Kd is 7 nM. For the compound `O=C1Cc2cc(C(=O)N3CCc4ccccc43)cnc2N1` [Example 20, 5-(Indoline-1-carbonyl)-1,3-dihydropyrrolo[2,3-b]pyridin-2-one], the Kd was found to be 13 nM. The figure for `CC(C)c1nc2ccccc2n1-c1ccc2c(c1)C(F)(F)C(=O)N2` [Example 21, 3,3-Difluoro-5-(2-isopropylbenzimidazol-1-yl)indolin-2-one] is below 1 nM; for `O=C(c1ccc2[nH]c(=O)oc2c1)N1Cc2cccc(O)c2C1` [Example 22, 6-(4-Hydroxyisoindoline-2-carbonyl)-3H-1,3-benzoxazol-2-one] it is 2 nM. Turning to `O=C(c1ccc2[nH]c(=O)oc2c1)N1Cc2cccc([N+](=O)[O-])c2C1` [Example 23, 6-(4-Nitroisoindoline-2-carbonyl)-3H-1,3-benzoxazol-2-one], the Kd was 14 nM.

With `O=C(Nc1ccc2c(c1)C(F)(F)C(=O)N2)C1CCCc2ccccc21` (stereo not drawn) [Example 24, N-(3,3-difluoro-2-oxo-indolin-5-yl)tetralin-1-carboxamide], the Kd amounted to 28 nM. Regarding `O=C(Nc1ccc2c(c1)C(F)(F)C(=O)N2)c1coc2ccccc12` [Example 25, N-(3,3-difluoro-2-oxo-indolin-5-yl)benzofuran-3-carboxamide], the Kd was determined as 52 nM. Consider `CNC(=O)c1ccc2c(c1)nc(C(C)C)n2-c1cnc2c(c1)CC(=O)N2` [Example 26, 2-Isopropyl-N-methyl-1-(2-oxo-1,3-dihydropyrrolo[2,3-b]pyridin-5-yl)benzimidazole-5-carboxamide], for which the Kd worked out at 7 nM. With `CC(C)c1nc2ccccc2n1-c1cnc2c(c1)CC(=O)N2` [Example 27, 5-(2-Isopropylbenzimidazol-1-yl)-1,3-dihydropyrrolo[2,3-b]pyridin-2-one], the Kd is below 1 nM.
